Target: T1, L-alanine dehydrogenase (A.D) (Bacillus subtilis, UniProt Q08352)
T1 sequence (Q08352 1-378): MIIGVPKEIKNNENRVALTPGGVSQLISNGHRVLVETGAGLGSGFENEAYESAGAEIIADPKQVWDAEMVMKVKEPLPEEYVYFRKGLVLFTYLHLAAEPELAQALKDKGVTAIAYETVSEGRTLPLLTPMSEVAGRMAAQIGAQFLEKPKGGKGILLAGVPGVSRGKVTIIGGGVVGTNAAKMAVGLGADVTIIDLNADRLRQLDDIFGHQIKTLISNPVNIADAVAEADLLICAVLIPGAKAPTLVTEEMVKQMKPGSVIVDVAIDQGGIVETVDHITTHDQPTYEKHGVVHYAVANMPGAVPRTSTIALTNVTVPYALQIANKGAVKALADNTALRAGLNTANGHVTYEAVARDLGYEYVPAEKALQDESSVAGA
Experiment: Relative activity of substrate with L-alanine dehydrogenase
Assay type: biochemical
Settings: relative to L-alanine (100%)
From the text: If L-alanine dehydrogenase (A.D) is used as the enzyme in a reaction system similar to that used for leucine dehydrogenase, a suitable substrate and its activity relative to L-alanine (100%) is […]

N[C@@H](CO)C(=O)O [L-serine]
Relative Activity: 5%

Source: patent US5804402A, “Reagent” (priority 1995, dated 1998)
